{
  "source": "patent US11613522B2",
  "about": "“Herbicidally active 3-phenylisoxazoline-5-carboxamides of tetrahydro- and dihydrofurancarboxamides” (BAYER AKTIENGESELLSCHAFT, priority 2017, dated 2023)",
  "type_in_all_cases": "in vivo",
  "key": {"Alopecurus myosuroides [1]": {"system": "Alopecurus myosuroides", "assay": "Pre-emergence herbicidal activity against ALOMY", "settings": "Alopecurus myosuroides, 504 h, dosage 80 g/ha, scored visually after about 3 weeks vs untreated controls", "how_it_was_run": "(§1)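 Emulsion concentrates or wettable powders, diluted in water containing 0.5% additive, go onto covering soil at a spray volume of 600 l/ha. Percent herbicidal effect is judged by eye about 3 weeks later in the greenhouse, 0% meaning like control plants and 100% meaning dead.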"}, "Stellaria media [2]": {"system": "Stellaria media", "assay": "Pre-emergence herbicidal activity against STEME", "settings": "Stellaria media, 504 h, dosage 80 g/ha, scored visually after about 3 weeks vs untreated controls", "how_it_was_run": "as §1"}, "Viola tricolor [3]": {"system": "Viola tricolor", "assay": "Pre-emergence herbicidal activity against VIOTR", "settings": "Viola tricolor, 504 h, dosage 80 g/ha, scored visually after about 3 weeks vs untreated controls", "how_it_was_run": "as §1"}, "Veronica persica [4]": {"system": "Veronica persica", "assay": "Post-emergence herbicidal activity against VERPE", "settings": "Veronica persica, 504 h, dosage 320 g/ha, rated visually after about 3 weeks", "how_it_was_run": "(§2)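 Percent herbicidal activity, 0% like controls and 100% dead plants, is scored visually roughly 3 weeks after foliar treatment. Treatment follows 2–3 weeks of greenhouse growth in sandy loam, at the one-leaf stage, using WP or EC preparations in water with 0.5% additive (600 l/ha).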"}, "Echinochloa crus-galli [5]": {"system": "Echinochloa crus-galli", "assay": "Post-emergence herbicidal activity against ECHCG", "settings": "Echinochloa crus-galli, 504 h, dosage 320 g/ha, rated visually after about 3 weeks", "how_it_was_run": "as §2"}, "Polygonum convolvulus": {"system": "Polygonum convolvulus", "assay": "Pre-emergence herbicidal activity against POLCO", "settings": "Fallopia convolvulus, 504 h, dosage 80 g/ha, scored visually after about 3 weeks vs untreated controls", "how_it_was_run": "as §1"}, "Veronica persica [6]": {"system": "Veronica persica", "assay": "Pre-emergence herbicidal activity against VERPE", "settings": "Veronica persica, 504 h, dosage 80 g/ha", "how_it_was_run": "as §1"}, "Stellaria media [7]": {"system": "Stellaria media", "assay": "Post-emergence herbicidal activity against STEME", "settings": "Stellaria media, 504 h, dosage 320 g/ha, rated visually after about 3 weeks", "how_it_was_run": "as §2"}, "Cyperus esculentus": {"system": "Cyperus esculentus", "assay": "Pre-emergence herbicidal activity against CYPES", "settings": "dosage 80 g/ha, scored visually after about 3 weeks vs untreated controls", "description": "1. Pre-emergence herbicidal action against harmful plants and crop plant compatibility Seeds of monocotyledonous and dicotyledonous weed plants and crop plants are placed in plastic or wood fiber pots and covered with soil. The compounds of the invention, formulated in the form of wettable powders (WP) or as emulsion concentrates (EC), are then applied onto the surface of the covering soil as aqueous suspension or emulsion with addition of 0.5% additive at a water application rate of 600 l/ha (converted). After the treatment, the pots are placed in a greenhouse and kept under good growth conditions for the trial plants. After about 3 weeks, the effect of the preparations is scored visually in comparison with untreated controls as percentages. For example, 100% activity=the plants have died, 0% activity=like control plants. [table]"}, "Pharbitis purpurea [8]": {"system": "Pharbitis purpurea", "assay": "Post-emergence herbicidal activity against PHBPU", "settings": "Ipomoea purpurea, 504 h, dosage 320 g/ha, rated visually after about 3 weeks", "how_it_was_run": "as §2"}, "Amaranthus retroflexus [9]": {"system": "Amaranthus retroflexus", "assay": "Pre-emergence herbicidal activity against AMARE", "settings": "Amaranthus retroflexus, 504 h, dosage 80 g/ha, scored visually after about 3 weeks vs untreated controls", "how_it_was_run": "as §1"}, "Avena fatua": {"system": "Avena fatua", "assay": "Pre-emergence herbicidal activity against AVEFA", "settings": "Avena fatua, 504 h, dosage 80 g/ha, scored visually after about 3 weeks vs untreated controls, read-out: Pre-emergence herbicidal activity in % against AVEVA (AVEFA)", "how_it_was_run": "as §1"}, "Lolium rigidum [10]": {"system": "Lolium rigidum", "assay": "Post-emergence herbicidal activity against LOLRI", "settings": "Lolium rigidum, 504 h, dosage 320 g/ha, rated visually after about 3 weeks", "how_it_was_run": "as §2"}, "Viola tricolor [11]": {"system": "Viola tricolor", "assay": "Post-emergence herbicidal activity against VIOTR", "settings": "Viola tricolor, 504 h, dosage 320 g/ha, rated visually after about 3 weeks", "how_it_was_run": "as §2"}, "Setaria viridis [12]": {"system": "Setaria viridis", "assay": "Pre-emergence herbicidal activity against SETVI", "settings": "Setaria viridis, 504 h, dosage 80 g/ha, scored visually after about 3 weeks vs untreated controls", "how_it_was_run": "as §1"}, "Amaranthus retroflexus [13]": {"system": "Amaranthus retroflexus", "assay": "Post-emergence herbicidal activity against AMARE", "settings": "Amaranthus retroflexus, 504 h, dosage 320 g/ha, rated visually after about 3 weeks", "how_it_was_run": "as §2"}, "Hordeum murinum [14]": {"system": "Hordeum murinum", "assay": "Post-emergence herbicidal activity against HORMU", "settings": "Hordeum murinum, 504 h, dosage 320 g/ha, rated visually after about 3 weeks", "how_it_was_run": "as §2"}, "Hordeum murinum [15]": {"system": "Hordeum murinum", "assay": "Pre-emergence herbicidal activity against HORMU", "settings": "Hordeum murinum, 504 h, dosage 80 g/ha", "how_it_was_run": "as §1"}, "Setaria viridis [16]": {"system": "Setaria viridis", "assay": "Post-emergence herbicidal activity against SETVI", "settings": "Setaria viridis, 504 h, dosage 320 g/ha, rated visually after about 3 weeks", "how_it_was_run": "as §2"}, "Lolium rigidum [17]": {"system": "Lolium rigidum", "assay": "Pre-emergence herbicidal activity against LOLRI", "settings": "Lolium rigidum, 504 h, dosage 80 g/ha, scored visually after about 3 weeks vs untreated controls", "how_it_was_run": "as §1"}, "Abutilon theophrasti": {"system": "Abutilon theophrasti", "assay": "Post-emergence herbicidal activity against ABUTH", "settings": "Abutilon theophrasti, 504 h, dosage 320 g/ha, rated visually after about 3 weeks", "how_it_was_run": "as §2"}, "Pharbitis purpurea [18]": {"system": "Pharbitis purpurea", "assay": "Pre-emergence herbicidal activity against PHBPU", "settings": "dosage 80 g/ha, scored visually after about 3 weeks vs untreated controls", "how_it_was_run": "as §1"}, "Alopecurus myosuroides [19]": {"system": "Alopecurus myosuroides", "assay": "Post-emergence herbicidal activity against ALOMY", "settings": "Alopecurus myosuroides, 504 h, dosage 320 g/ha, rated visually after about 3 weeks", "how_it_was_run": "as §2"}, "Echinochloa crus-galli [20]": {"system": "Echinochloa crus-galli", "assay": "Pre-emergence herbicidal activity against ECHCG", "settings": "Echinochloa crus-galli, 504 h, dosage 80 g/ha, scored visually after about 3 weeks vs untreated controls", "how_it_was_run": "as §1"}, "[21]": {"assay": "Pre-emergence herbicidal action against harmful plants (summary of the tables)", "settings": "504 h, application rate of 0.08 kg of active substance or less per hectare, read-out: herbicidal action, pre-emergence treatment (very good activity)", "how_it_was_run": "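Seeds of weeds and crops were covered with soil, then WP or EC formulations were sprayed onto the soil surface pre-emergence at 600 l/ha water with 0.5% additive. Plants were grown in a greenhouse for about 3 weeks, and damage was scored visually as a percentage versus untreated controls (100% = plants dead).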"}},
  "data": [
    {"smiles": "C=C[C@]1(C(=O)N[C@@H]2CO[C@H](C(=O)NS(C)(=O)=O)C2)CC(c2cc(F)cc(F)c2)=NO1", "note": "(mixture of isomers) [Example I-16, (5S)-3-(3,5-difluorophenyl)-N-[cis-5-(methylsulfonylcarbamoyl)tetrahydrofuran-3-yl]-5-vinyl-4H-isoxazole-5-carboxamide]", "values": [
      {"measurement": "pest or weed control at 80 g/ha", "setting": "Alopecurus myosuroides [1]", "value": 100, "unit": "%"},
      {"measurement": "pest or weed control at 80 g/ha", "setting": "Stellaria media [2]", "value": 100, "unit": "%"},
      {"measurement": "pest or weed control at 80 g/ha", "setting": "Viola tricolor [3]", "value": 100, "unit": "%"},
      {"measurement": "pest or weed control at 320 g/ha", "setting": "Veronica persica [4]", "value": 80, "unit": "%"},
      {"measurement": "pest or weed control at 320 g/ha", "setting": "Echinochloa crus-galli [5]", "value": 90, "unit": "%"},
      {"measurement": "pest or weed control at 80 g/ha", "setting": "Polygonum convolvulus", "value": 100, "unit": "%"},
      {"measurement": "pest or weed control at 80 g/ha", "setting": "Veronica persica [6]", "value": 90, "unit": "%"},
      {"measurement": "pest or weed control at 320 g/ha", "setting": "Stellaria media [7]", "value": 90, "unit": "%"},
      {"measurement": "Pre-emergence herbicidal activity in % against CYPES", "setting": "Cyperus esculentus", "value": 100, "unit": "%"},
      {"measurement": "pest or weed control at 320 g/ha", "setting": "Pharbitis purpurea [8]", "value": 80, "unit": "%"},
      {"measurement": "pest or weed control at 80 g/ha", "setting": "Amaranthus retroflexus [9]", "value": 100, "unit": "%"},
      {"measurement": "pest or weed control at 80 g/ha", "setting": "Avena fatua", "value": 100, "unit": "%"},
      {"measurement": "pest or weed control at 320 g/ha", "setting": "Lolium rigidum [10]", "value": 90, "unit": "%"},
      {"measurement": "pest or weed control at 320 g/ha", "setting": "Viola tricolor [11]", "value": 80, "unit": "%"},
      {"measurement": "pest or weed control at 80 g/ha", "setting": "Setaria viridis [12]", "value": 100, "unit": "%"},
      {"measurement": "pest or weed control at 320 g/ha", "setting": "Amaranthus retroflexus [13]", "value": 90, "unit": "%"},
      {"measurement": "pest or weed control at 320 g/ha", "setting": "Hordeum murinum [14]", "value": 80, "unit": "%"},
      {"measurement": "pest or weed control at 80 g/ha", "setting": "Hordeum murinum [15]", "value": 100, "unit": "%"},
      {"measurement": "pest or weed control at 320 g/ha", "setting": "Setaria viridis [16]", "value": 80, "unit": "%"},
      {"measurement": "pest or weed control at 80 g/ha", "setting": "Lolium rigidum [17]", "value": 100, "unit": "%"},
      {"measurement": "pest or weed control at 320 g/ha", "setting": "Abutilon theophrasti", "value": 80, "unit": "%"},
      {"measurement": "Pre-emergence herbicidal activity in % against PHBPU", "setting": "Pharbitis purpurea [18]", "value": 90, "unit": "%"},
      {"measurement": "pest or weed control at 320 g/ha", "setting": "Alopecurus myosuroides [19]", "value": 90, "unit": "%"},
      {"measurement": "pest or weed control at 80 g/ha", "setting": "Echinochloa crus-galli [20]", "value": 100, "unit": "%"},
      {"measurement": "pest or weed control at 80 g/ha", "setting": "[21]", "value": "80 to 100", "unit": "%"}
    ]}
  ]
}
